Assay results from US20220135564A1, “DEUTERATED MITRAGYNINE ANALOGS AS SAFER OPIOID MODULATORS IN THE MITRAGYNINE CLASS” (The Trustees of Columbia University in the City of New York, priority 2019, published 2022).
Counter-ions that a name gives are not always drawn.

Assays:
mice = test: Analgesic activity of DHM in mice; assay type: in vivo, mouse
male mice (C57BL/6J) = test: Rotarod test in mice (motor coordination); assay type: in vivo, mouse; details: male C57BL/6J mice, s.c., cumulative 3, 10, 30 mg/kg, compared to vehicle
Protocol: The rotarod test is useful for measuring the motor coordination of rodents and therefore, for identifying test drugs that induce ataxic effects. 3-Dehydromitragynine (DHM) reduces the performance of mice in this test in a dose-dependent manner; indicating an impairment of motor coordination by this compound (FIG. 1).
Animals. This study was conducted using male C57BL/6J mice, 7 weeks of age (n=10/treatment), purchased from The Jackson Laboratory (Bar Harbor, Me.). Animals were housed in groups of five and allowed to acclimate for 1 week prior to testing. Mice had ad libitum access to food and water and were maintained on a 12-hour light/dark cycle. All testing was done in the light cycle.
Drug. DHM hydrochloride was dissolved in double-distilled H2O containing 10% N-methyl-2-pyrrolidone (NMP). Drug or vehicle was administered subcutaneously 15 minutes prior to the start of behavioral testing at a volume of 10 mL/kg body weight. Dosing was performed cumulatively at 3, 10, and 30 mg/kg, with 1 hour between injections.
Rotarod Testing. On the test day, animals were acclimated to the testing room for 1 hour. An accelerating rotarod (Model 7650, UGO Basile, Comeria, VA, Italy) was used to measure the motor coordination of the animals. Time on the rotarod was measured by stopwatch, starting when animals were placed on the rod and ending at the time the animal fell off the apparatus. […]

[1] = Metabolic profiling of DHM in mouse liver S9 fraction (MS9); assay type: in vitro ADME; details: DHM 10 μM, MS9, 60-min incubation, positive ion mode
Protocol: Analytical System. The metabolic profiling of DHM in mouse liver S9 fraction was performed using high performance liquid chromatography-tandem mass spectrometry (HPLC-MS/MS). A Shimadzu HPLC system comprising 2 isocratic pumps (LC-10ADvp), an autosampler (SIL-30ACMP), a system controller (CBM-20A), a high-pressure switching valve (FCV-20AH6), and a degasser (DGU-14A) was used for separations. Mass spectrometric analyses were performed using an API 4000 QTRAP mass spectrometer from Applied Biosystems/MDS Sciex (AB Sciex) with Turbo V ion source and TurboIonspray interface. Data acquisition and system control was performed using Analyst 1.6.3 software from AB Sciex.
Liver S9 Incubations. Liver S9 fraction pooled from male CD-1 mice was used. Incubations were carried out in 1.1 mL microtubes (in 96-well format plate) in aliquots of 40 μL each (2 for each time point; 0, 6, 16, 30, and 60 min). […] Control incubations were performed replacing the cofactor system with phosphate buffer. Test compound DHM (10 μM, final solvent concentration 1.6%) was incubated with S9 at 37° C., shaking at 100 rpm. Incubations were performed in duplicate. Five time points over 60 minutes (0, 6, 16, 30, and 60 min) were analyzed. […] Supernatants (two time points, 0 and 60 min) were analyzed for remaining parent compound and putative metabolites by HPLC-MS/MS.
General Strategy for Identification of Metabolites. […]

[2] = tested on: mice (129Sv6 or CD-1 strain); test: Lethality assay in mice; assay type: in vivo, mouse; details: s.c., lethality 24 h after administration
Protocol: Lethality Assay. Groups of mice (n=6 per dose, 129Sv6 or CD-1 strain) were treated subcutaneously (s.c.) with different doses of DHM and tested for lethality 24 h after drug administration.

CC[C@@H]1C[N+]2=C(C[C@@H]1/C(=C\OC)C(=O)OC)c1[nH]c3cccc(OC)c3c1CC2 [DHM, 3-Dehydromitragynine hydrochloride]
analgesic activity on its own (mice): does not exhibit analgesic activity | motor coordination, latency to fall in the rotarod test (male mice (C57BL/6J)): dramatically impairs motor coordination | % Area [1]: 20% | LD50 (95% confidence interval) ([2]; 129Sv6 mice): 48.4 (71.27-342.3) mg/kg | LD50 (95% confidence interval) ([2]; CD-1 mice): 74 (48.08-120.5) mg/kg
